Data published in patent publication US5438046A, “N-heteroaryl substituted derivatives of propanamide useful in the treatment of cardiovascular diseases” (Zambon Group S.p.A., priority 1993, dated 1995).

Target: T1, endothelin converting enzyme (ECE) (Oryctolagus cuniculus, UniProt A0A5F9CTJ8)
T1 construct: The left saphenous artery was removed and cleaned of the surrounding tissue, cut into 2-3 mm length rings; from tissue; host or cells: left saphenous artery rings of male New Zealand rabbits
T1 sequence (A0A5F9CTJ8 1-783): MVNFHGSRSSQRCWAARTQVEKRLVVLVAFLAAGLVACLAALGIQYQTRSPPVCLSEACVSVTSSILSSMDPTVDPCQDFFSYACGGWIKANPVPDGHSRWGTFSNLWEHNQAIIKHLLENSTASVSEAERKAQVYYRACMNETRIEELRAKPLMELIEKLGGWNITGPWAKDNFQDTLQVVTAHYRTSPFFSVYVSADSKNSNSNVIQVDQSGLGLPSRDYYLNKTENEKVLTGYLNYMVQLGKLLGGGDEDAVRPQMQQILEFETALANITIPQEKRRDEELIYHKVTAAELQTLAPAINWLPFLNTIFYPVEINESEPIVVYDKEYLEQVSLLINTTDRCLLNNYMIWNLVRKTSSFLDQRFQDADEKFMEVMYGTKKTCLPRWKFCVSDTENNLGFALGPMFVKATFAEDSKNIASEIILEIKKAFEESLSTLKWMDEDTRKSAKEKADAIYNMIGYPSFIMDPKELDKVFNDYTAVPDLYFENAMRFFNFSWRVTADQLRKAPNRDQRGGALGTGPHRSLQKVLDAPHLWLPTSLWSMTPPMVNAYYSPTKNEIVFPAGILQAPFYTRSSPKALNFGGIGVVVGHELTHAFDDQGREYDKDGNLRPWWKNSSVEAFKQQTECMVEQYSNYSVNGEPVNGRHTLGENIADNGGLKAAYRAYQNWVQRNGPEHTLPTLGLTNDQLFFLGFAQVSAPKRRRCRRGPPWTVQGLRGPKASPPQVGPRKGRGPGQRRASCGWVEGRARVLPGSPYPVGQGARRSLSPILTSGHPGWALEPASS
Experiment: In vitro ECE-inhibitory activity (inhibition of Big endothelin response in rabbit left saphenous artery rings)
Format: cell-based, New Zealand rabbits
Settings: human Big endothelin 3×10^-8 M, compound contact 30 minutes
Description: Male New Zealand rabbits (2.5-3 Kg) were sacrificed with an excess of pentobarbital and blood was drawn. […] This solution was composed of (mM); NaCl, 118; KCl, 4.7; CaCl2, 2.5; KH2 PO4, 1.2; MgSO4, 1.2; NaHCO3, […]; glucose, 11. The preparations were kept under tension and readjusted to 1 g during the equilibration period (1 hour).
After said period, the preparations were exposed to a submaximal concentration of norepinephrine 1 μM which was repeated every 30 minutes until the response was stable. A concentration of acetylcholine 10 μM on the contraction of norepinephrine verified the presence of the endothelium.
After 30 minutes from the last contraction due to norepinephrine, a concentration of human Big endothelin 3×10^-8 M was administered. […] The percentage of ECE-inhibition was expressed as IC50 value (nM).

IC50: 50 nM
SMILES: CC(C)C[C@H](NP(=O)(O)O[C@@H]1O[C@@H](C)[C@H](O)[C@@H](O)[C@H]1O)C(=O)N[C@@H](Cc1c[nH]c2ccccc12)C(=O)O [Phosphoramidon, N-[N-[[(6-deoxy-α-L-mannopyranosyl)oxy]hydroxyphos-phinyl]-l-leucyl]-L-tryptophan]
